# Laboratory results as given in article PMC10791668, “Development of chia gum/alginate-polymer support for horseradish peroxidase immobilization and its application in phenolic removal” (Scientific Reports, 2024).
# Tested on: T1, Horseradish peroxidase (HRP); soluble-HRP
# T1 construct: gene PRXC1A; class III plant peroxidase
# Experiment: peroxidase assay, absorbance at […] nm, Lineweaver-Burk plot
# Assay type: biochemical, Armoracia rusticana
# Details: free soluble enzyme; co-substrate H2O2 (8 mM in the standard assay); 20 mM sodium acetate pH 5.5; temperature not stated
structure (smiles),measurement,value
COc1ccccc1O [guaiacol],Km,35.7 mM
